This note sets out measurements from patent publication US10227357B2, “Compounds and methods for kinase modulation, and indications therefor” (Plexxikon Inc., priority 2012, dated 2019).

The target of one test is T1, c-kit mutant D816V (Homo sapiens, UniProt P10721, D816V/DEL694-753).
T1 construct: residues 551-934, kinase insertion domain residues 694-753 deleted; 6x-histidine (N); made in house; host or cells: E. coli Arctic Express (DE3) RIL (Stratagene)
The test is described as follows: c-Kit mutant D816V biochemical assay, AlphaScreen. As to conditions: c-kit D816V biochemical inhibitory activity; read-out: Biochemical activity (IC50 μM) Kit D816V. The procedure, abridged:
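Purified His-tagged c-Kit D816V (E. coli-expressed) assayed in 25 mM HEPES pH 7.2 with Mg/Mn, 5% DMSO and 10 μM ATP, 30 min at room temperature, 8-point 1:3 dilutions. Phosphorylation detected by AlphaScreen with streptavidin donor and PY20 acceptor beads; IC50 from signal versus concentration.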

A further test concerns the target T2, c-kit kinase (Homo sapiens, UniProt P10721).
T2 construct: The c-kit (or kinase domain thereof) is an active kinase in AlphaScreen; poly-Histidine tag (in-house protein only) (cleaved yes); host or cells: E. coli BL21(DE3)RIL, co-expressed with PTP1B
Kind of test: c-Kit biochemical assay, AlphaScreen, 10 μM ATP. The note with it: c-kit biochemical inhibitory activity; read-out: Biochemical activity (IC50 μM) Kit. The procedure, abridged:
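His-tagged c-Kit expressed in E. coli with co-expressed PTP1B (dephosphorylated), tag removed; 0.1 ng per reaction with biotinylated-peptide substrate in 50 mM HEPES pH 7.2, 5 mM MgCl2, 5 mM MnCl2, 5% DMSO, 10 μM ATP, 1 h at room temperature. Phosphorylation detected by AlphaScreen (streptavidin donor, PY20 acceptor beads); IC50 from 8-point 1:3 dilution series.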

T2 sequence (P10721 26-976): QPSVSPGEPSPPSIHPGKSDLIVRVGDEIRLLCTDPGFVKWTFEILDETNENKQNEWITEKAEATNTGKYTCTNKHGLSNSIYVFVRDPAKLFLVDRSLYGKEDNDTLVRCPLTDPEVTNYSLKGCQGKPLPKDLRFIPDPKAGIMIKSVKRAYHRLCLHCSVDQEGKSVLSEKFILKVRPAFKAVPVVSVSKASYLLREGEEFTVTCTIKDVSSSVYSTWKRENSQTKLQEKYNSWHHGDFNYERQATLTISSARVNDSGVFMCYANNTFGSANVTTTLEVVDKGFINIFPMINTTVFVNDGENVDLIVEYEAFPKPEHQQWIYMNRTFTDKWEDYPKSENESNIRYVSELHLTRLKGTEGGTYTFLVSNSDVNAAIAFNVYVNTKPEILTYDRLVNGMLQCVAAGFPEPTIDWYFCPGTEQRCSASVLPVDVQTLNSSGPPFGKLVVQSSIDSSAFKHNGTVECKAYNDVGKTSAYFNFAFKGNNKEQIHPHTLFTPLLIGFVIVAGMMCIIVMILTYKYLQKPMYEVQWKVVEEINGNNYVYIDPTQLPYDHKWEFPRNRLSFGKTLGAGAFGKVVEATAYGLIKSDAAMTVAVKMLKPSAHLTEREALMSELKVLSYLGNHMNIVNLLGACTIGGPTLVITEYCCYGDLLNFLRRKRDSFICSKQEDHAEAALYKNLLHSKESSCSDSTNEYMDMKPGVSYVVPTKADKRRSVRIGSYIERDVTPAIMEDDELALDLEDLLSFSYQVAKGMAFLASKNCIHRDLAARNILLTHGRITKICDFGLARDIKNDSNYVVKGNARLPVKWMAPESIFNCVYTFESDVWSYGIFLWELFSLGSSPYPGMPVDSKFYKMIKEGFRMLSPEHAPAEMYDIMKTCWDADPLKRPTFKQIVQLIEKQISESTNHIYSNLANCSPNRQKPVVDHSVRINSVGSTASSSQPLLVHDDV
T1 sequence (P10721 with tags, fused parts or gaps DEL694-753/D816V): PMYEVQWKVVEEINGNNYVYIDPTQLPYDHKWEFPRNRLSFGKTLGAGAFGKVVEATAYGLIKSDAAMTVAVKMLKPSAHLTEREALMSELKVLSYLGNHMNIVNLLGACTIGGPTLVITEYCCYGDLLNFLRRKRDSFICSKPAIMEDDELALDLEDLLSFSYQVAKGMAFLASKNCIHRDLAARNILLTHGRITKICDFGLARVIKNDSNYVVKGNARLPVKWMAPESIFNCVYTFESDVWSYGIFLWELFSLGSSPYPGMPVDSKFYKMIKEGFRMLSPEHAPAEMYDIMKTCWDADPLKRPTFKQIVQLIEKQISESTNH

With `CN(C)c1ccc(NC(=O)N2CCN(c3ncnc4[nH]c(-c5ccc(C#N)cc5)cc34)CC2)cc1` [P-0070, 4-[6-(4-cyanophenyl)-7H-pyrrolo[2,3-d]pyrimidin-4-yl]-N-(4-dimethylaminophenyl)piperazine-1-carboxamide], the IC50 on c-kit mutant D816V and on c-kit kinase was 1 to 10 µM throughout.

Turning to `C[C@H]1CN(c2ncnc3[nH]c(-c4ccncc4)cc23)CCN1` [P-0071, 4-[(3S)-3-methylpiperazin-1-yl]-6-(4-pyridyl)-7H-pyrrolo[2,3-d]pyrimidine], the IC50 was in the range of 1 to 10 µM at c-kit mutant D816V and 10 to 200 µM at c-kit kinase.

`C[C@H](NC(=O)N1CCN(c2ncnc3[nH]c(-c4ccc(F)cc4)cc23)CC1)c1cccc(OC(F)F)c1` [P-0072, N-[(1S)-1-[3-(difluoromethoxy)phenyl]ethyl]-4-[6-(4-fluorophenyl)-7H-pyrrolo[2,3-d]pyrimidin-4-yl]piperazine-1-carboxamide]: the IC50 fell in the range of 0.0001 to 1 µM on c-kit mutant D816V and 1 to 10 µM on c-kit kinase.

Take `C[C@@H]1CN(c2ncnc3[nH]c(-c4ccncc4)cc23)CCN1` [P-0074, 4-[(3R)-3-methylpiperazin-1-yl]-6-(4-pyridyl)-7H-pyrrolo[2,3-d]pyrimidine]: the IC50 at c-kit mutant D816V and on c-kit kinase was 10 to 200 µM each time.

For the compound `C[C@H](NC(=O)N1CCN(c2ncnc3[nH]c(-c4ccc(F)cc4)cc23)CC1)c1cccc(OC(F)(F)F)c1` [P-0075, 4-[6-(4-fluorophenyl)-7H-pyrrolo[2,3-d]pyrimidin-4-yl]-N-[(1S)-1-[3-(trifluoromethoxy)phenyl]lethyl]piperazine-1-carboxamide], the IC50 on c-kit mutant D816V is 1 to 10 µM; at c-kit kinase, 10 to 200 µM.

On to `CS(=O)(=O)Nc1ccc(-c2cc3c(N4CCN(C(=O)Nc5ccc(OC(F)(F)F)cc5)CC4)ncnc3[nH]2)cc1` [P-0077, 4-[6-[4-(methanesulfonamido)phenyl]-7H-pyrrolo[2,3-d]pyrimidin-4-yl]-N-[4-(trifluoromethoxy)phenyl]piperazine-1-carboxamide], for which the IC50 on c-kit mutant D816V and on c-kit kinase was 0.0001 to 1 µM each time.

As for `NC(=O)c1cccc(-c2cc3c(N4CCN(C(=O)Nc5ccc(OC(F)(F)F)cc5)CC4)ncnc3[nH]2)c1` [P-0078, 4-[6-(3-carbamoylphenyl)-7H-pyrrolo[2,3-d]pyrimidin-4-yl]-N-[4-(trifluoromethoxy)phenyl]piperazine-1-carboxamide], the figures for the IC50 on c-kit mutant D816V and on c-kit kinase were 10 to 200 µM and 0.0001 to 1 µM, respectively.

On to `Cc1ncc(-c2cc3c(N4CCN(C(=O)NCc5ccc(F)cc5)CC4)ncnc3[nH]2)s1` [P-0079, N-[(4-fluorophenyl)methyl]-4-[6-(2-methylthiazol-5-yl)-7H-pyrrolo[2,3-d]pyrimidin-4-yl]piperazine-1-carboxamide], for which the 50% inhibitory concentration (IC50) at c-kit mutant D816V and at c-kit kinase was 0.0001 to 1 µM in each case.

As to `Cc1ncc(-c2cc3c(N4CCN(C(=O)Nc5ccc(OC(F)(F)F)cc5)CC4)ncnc3[nH]2)s1` [P-0080, 4-[6-(2-methylthiazol-5-yl)-7H-pyrrolo[2,3-d]pyrimidin-4-yl]-N-[4-(trifluoromethoxy)phenyl]piperazine-1-carboxamide], the IC50 on c-kit mutant D816V and at c-kit kinase was 0.0001 to 1 µM each time.

Consider `CNC(=O)c1cccc(-c2cc3c(N4CCN(C(=O)NCc5ccc(F)cc5)CC4)ncnc3[nH]2)c1` [P-0081, N-[(4-fluorophenyl)rnethyl]-4-[6-[3-(methylcarbamoyl)phenyl]-7H-pyrrolo[2,3-d]pyrimidin-4-yl]piperazine-1-carboxamide], for which the IC50 at c-kit mutant D816V is 0.0001 to 1 µM; at c-kit kinase, 1 to 10 µM.

Turning to `CC(=O)Nc1cccc(-c2cc3c(N4CCN(C(=O)NCc5ccc(F)cc5)CC4)ncnc3[nH]2)c1` [P-0082, 4-[6-(3-acetamidophenyl)-7H-pyrrolo[2,3-d]pyrimidin-4-yl]-N-[(4-fluorophenyl)methyl]piperazine-1-carboxamide], the values for the IC50 at c-kit mutant D816V and at c-kit kinase were 0.0001 to 1 µM and 1 to 10 µM, respectively.

With `NS(=O)(=O)c1cccc(-c2cc3c(N4CCN(C(=O)Nc5ccc(OC(F)(F)F)cc5)CC4)ncnc3[nH]2)c1` [P-0083, 4-[6-(3-sulfamoylphenyl)-7H-pyrrolo[2,3-d]pyrimidin-4-yl]-N-[4-(trifluoromethoxy)phenyl]piperazine-1-carboxamide], the IC50 at c-kit mutant D816V and at c-kit kinase was 0.0001 to 1 µM throughout.

With `CC(=O)Nc1ccc(-c2cc3c(N4CCN(C(=O)Nc5ccc(OC(F)(F)F)cc5)CC4)ncnc3[nH]2)cn1` [P-0084, 4-[6-(6-acetamido-3-pyridyl)-7H-pyrrolo[2,3-d]pyrimidin-4-yl]-N-[4-(trifluoromethoxy)phenyl]piperazine-1-carboxamide], the figures for the IC50 at c-kit mutant D816V and at c-kit kinase were 0.0001 to 1 µM and 1 to 10 µM, respectively.

With `CN(C)C(=O)c1cccc(-c2cc3c(N4CCN(C(=O)Nc5ccc(OC(F)(F)F)cc5)CC4)ncnc3[nH]2)c1` [P-0085, 4-[6-[3-(dimethylcarbamoyl)phenyl]-7H-pyrrolo[2,3-d]pyrimidin-4-yl]-N-[4-(trifluoromethoxy)phenyl]piperazine-1-carboxamide], the IC50 on c-kit mutant D816V and at c-kit kinase was 0.0001 to 1 µM throughout.

On to `N#Cc1ccc(-c2cc3c(N4CCN(C(=O)Nc5ccc(OC(F)(F)F)cc5)CC4)ncnc3[nH]2)cc1` [P-0086, 4-[6-(4-cyanophenyl)-7H-pyrrolo[2,3-d]pyrimidin-4-yl]-N-[4-(trifluoromethoxy)phenyl]piperazine-1-carboxamide], for which the IC50 at c-kit mutant D816V was 0.0001 to 1 µM; on c-kit kinase it was 1 to 10 µM.

`COc1ncc(CNC(=O)N2CCN(c3ncnc4[nH]c(-c5ccc(F)cc5)cc34)CC2)cc1F` [P-0087, N-[(5-fluoro-6-methoxy-3-pyridyl)methyl]-4-[6-(4-fluorophenyl)-7H-pyrrolo[2,3-d]pyrimidin-4-yl]piperazine-1-carboxamide]: the figures for the IC50 on c-kit mutant D816V and on c-kit kinase were 0.0001 to 1 µM and 1 to 10 µM, respectively.

On to `C#Cc1cc2c(N3CCN(C(=O)Nc4ccc(OCC)cc4)CC3)ncnc2[nH]1` [P-0089, N-(4-ethoxyphenyl)-4-(6-ethynyl-7H-pyrrolo[2,3-d]pyrimidin-4-yl)piperazine-1-carboxamide], for which the IC50 lay in the range of 10 to 200 µM on c-kit mutant D816V and 1 to 10 µM on c-kit kinase.

Take `Cn1cc(-c2cc3c(N4CCN(C(=O)Nc5ccc(OC(F)F)cc5)CC4)ncnc3[nH]2)cn1` [P-0091, N-[4-(difluoromethoxy)phenyl]-4-[6-(1-methylpyrazol-4-yl)-7H-pyrrolo[2,3-d]pyrimidin-4-yl]piperazine-1-carboxamide]: the IC50 at c-kit mutant D816V and on c-kit kinase was 0.0001 to 1 µM each time.

As to `Cn1cc(-c2cc3c(N4CCN(C(=O)Nc5ccc(OC(F)(F)F)cc5)CC4)ncnc3[nH]2)cn1` [P-0092, 4-[6-(1-methylpyrazol-4-yl)-7H-pyrrolo[2,3-d]pyrimidin-4-yl]-N-[4-(trifluoromethoxy)phenyl]piperazine-1-carboxamide], the concentration for half-maximal inhibition (IC50) at c-kit mutant D816V and at c-kit kinase was 0.0001 to 1 µM throughout.

For `COc1cccc([C@H](C)NC(=O)N2CCN(c3ncnc4[nH]c(-c5cnn(C)c5)cc34)CC2)c1` [P-0093, N-[(1S)-1-(3-methoxyphenyl)ethyl]-4-[6-(1-methylpyrazol-4-yl)-7H-pyrrolo[2,3-d]pyrimidin-4-yl]piperazine-1-carboxamide], the IC50 at c-kit mutant D816V and on c-kit kinase was 0.0001 to 1 µM throughout.

Regarding `C[C@H](NC(=O)N1CCN(c2ncnc3[nH]c(-c4cnn(C)c4)cc23)CC1)c1ccc(F)cc1` [P-0094, N-[(1S)-1-(4-fluorophenyl)ethyl]-4-[6-(1-methylpyrazol-4-yl)-7H-pyrrolo[2,3-d]pyrimidin-4-yl]piperazine-1-carboxamide], the IC50 lay in the range of 0.0001 to 1 µM at c-kit mutant D816V and 1 to 10 µM at c-kit kinase.

As to `C[C@H](NC(=O)N1CCN(c2ncnc3[nH]c(-c4cnn(C)c4)cc23)CC1)c1ccc(Cl)cc1` [P-0095, N-[(1S)-1-(4-chlorophenyl)ethyl]-4-[6-(1-methylpyrazol-4-yl)-7H-pyrrolo[2,3-d]pyrimidin-4-yl]piperazine-1-carboxamide], the IC50 on c-kit mutant D816V and at c-kit kinase was 0.0001 to 1 µM throughout.

Turning to `Cn1cc(-c2cc3c(N4CCN(C(=O)Nc5ccc(F)cc5)CC4)ncnc3[nH]2)cn1` [P-0096, N-(4-fluorophenyl)-4-[6-(1-methylpyrazol-4-yl)-7H-pyrrolo[2,3-d]pyrimidin-4-yl]piperazine-1-carboxamide], the IC50 at c-kit mutant D816V and at c-kit kinase was 0.0001 to 1 µM in each case.

`Cn1cc(-c2cc3c(N4CCN(C(=O)NCc5ccc(Cl)cc5)CC4)ncnc3[nH]2)cn1` [P-0097, N-[(4-chlorophenyl)methyl]-4-[6-(1-methylpyrazol-4-yl)-7H-pyrrolo[2,3-d]pyrimidin-4-yl]piperazine-1-carboxamide]: the IC50 at c-kit mutant D816V and on c-kit kinase was 0.0001 to 1 µM in each case.

On to `O=C(NS(=O)(=O)c1ccc(Cl)cc1)N1CCN(c2ncnc3[nH]c(-c4ccc(F)cc4)cc23)CC1` [P-0098, N-(4-chlorophenyl)sulfonyl-4-[6-(4-fluorophenyl)-7H-pyrrolo[2,3-d]pyrimidin-4-yl]piperazine-1-carboxamide], for which the IC50 on c-kit mutant D816V and at c-kit kinase was 1 to 10 µM throughout.

On to `NS(=O)(=O)c1ccc(-c2cc3c(N4CCN(C(=O)NCc5ccc(F)cc5)CC4)ncnc3[nH]2)cc1` [P-0099, N-[(4-fluorophenyl)methyl]-4-[6-(4-sulfamoylphenyl)-7H-pyrrolo[2,3-d]pyrimidin-4-yl]piperazine-1-carboxamide], for which the 50% inhibitory concentration (IC50) at c-kit mutant D816V was in the range of 0.0001 to 1 µM; at c-kit kinase it was 1 to 10 µM.
